Experiments:
Format in all cases: cell-based, mouse
4T1 cells [1] = assay: Measurement of extracellular pH of culture medium, 4T1 cells; details: hypoxia 72 hours, CAI 17 400 μM
Description: (§1) The acquisition, generation and culture of the mouse breast cancer cell lines 4T1, 66cl4 and 67NR have been described previously^11. These 3 cell lines stably express a luciferase reporter^11 and were cultured routinely in DMEM supplemented with 10% FBS, non-essential amino acids and […] puromycin. Incubation in normoxia was carried out in a humidified atmosphere of 5% CO2 and 95% air at 37° C. Cells were maintained in conditions of hypoxia (1% O2 and 5% CO2 balanced with N2) at 37° C. in a humidified incubator positioned in a sealed anaerobic workstation.
Cells were plated in 60 mm dishes and allowed to recover for 24 hours. Growth medium was then replaced with a standard 3 ml volume of fresh media and cells were incubated in normoxia or hypoxia for 72 hours. Spent media was collected in 15 ml conical tubes, maintained at 37° C. and pH was measured immediately using a digital pH meter. Triplicate plates were run for each condition and results were averaged. Cell layers were kept on ice and were harvested for qRT-PCR and Western blot analysis. […]
(§2) Data are expressed as the mean change in extracellular pH±s.e.m. of triplicate samples and are representative of 3 independent experiments. […]
Data are expressed as the mean change in extracellular pH±s.e.m. and are representative of 2 independent experiments (each n=3).

67NR cells = assay: Binding of FITC-tagged CAIX inhibitor to cells (epifluorescence), 67NR cells; details: hypoxia 72 hours, 10 μM
Description: (§3) CAI 17 was a generous gift from Dr. Claudiu Supuran (University of Florence, Florence, Italy). The chemical properties of this sulfonamide have been previously described^20,34. The sulfonamide was dissolved in 100% DMSO, stored at −80° C. and diluted into culture medium just prior to application. Subconfluent cell monolayers were incubated with CAI 17 for 72 hours in normoxia or hypoxia, washed 3× in PBS and imaged using a Ziess Axioplan epifluorescence microscope.
(§4) FIG. 4, part d, depicts localization of the fluorescent CAIX inhibitor, CAI 17, on cells. To determine whether the acidification was CAIX-dependent, cells were treated with a highly specific CAIX inhibitor (compound 17 or “CAI 17”)^20. Cells were incubated in normoxia or hypoxia for 72 hours in the presence of CAI 17 at a concentration of 10 μM. Shown are representative images of the FITC-tagged inhibitor bound to the cells under the indicated experimental conditions. Data were similar in 3 independent experiments.

66cl4 cells [2] = assay: Measurement of extracellular pH of culture medium, 66cl4 cells; details: hypoxia 72 hours, CAI 17 600 μM
Description: as §1
Cells were plated in 60 mm dishes and allowed to recover for 24 hours. Growth medium was then replaced with a standard 3 ml volume of fresh media and cells were incubated in normoxia or hypoxia for 72 hours. Spent media was collected in 15 ml conical tubes, maintained at 37° C. and pH was measured immediately using a digital pH meter. Triplicate plates were run for each condition and results were averaged. Cell layers were kept on ice and were harvested for qRT-PCR and Western blot analysis.
CAI 17 was a generous gift from Dr. Claudiu Supuran (University of Florence, Florence, Italy). The chemical properties of this sulfonamide have been previously described^20,34. […]
as §2

4T1 cells [3] = assay: Binding of FITC-tagged CAIX inhibitor to cells (epifluorescence), 4T1 cells; details: hypoxia 72 hours, 10 μM
Description: as §3, §4

66cl4 cells [4] = assay: Binding of FITC-tagged CAIX inhibitor to cells (epifluorescence), 66cl4 cells; details: hypoxia 72 hours, 10 μM
Description: as §3, §4

## NS(=O)(=O)c1ccc(CCNC(=S)Nc2ccc(-c3c4ccc(=O)cc-4oc4cc(O)ccc34)c(C(=O)O)c2)cc1 [CAI 17]
4T1 cells [1]
  acidification of the extracellular medium under hypoxia: reversed acidification of the extracellular medium
67NR cells
  binding of FITC-tagged inhibitor to cell surfaces: not
66cl4 cells [2]
  acidification of the extracellular medium under hypoxia: reversed acidification of the extracellular medium
4T1 cells [3]
  binding of FITC-tagged inhibitor to cell surfaces: binds to the cell surfaces
66cl4 cells [4]
  binding of FITC-tagged inhibitor to cell surfaces: binds to the cell surfaces
